From patent publication US20100261877A1, “PROCESS FOR ISOLATING THERAPEUTIC PEPTIDES” (priority 2009, published 2010)
Where a SMILES comes first, the peptide text is derived from it. Bridges are numbered along the chain shown (N, C = ends).

Key:
[1] = biological target: T1, guanylate cyclase type C receptor (GCC) (Homo sapiens, UniProt P25092); conditions: in vitro, varying concentrations; cited from earlier work
T1 construct: endogenous in cells

[2] = Solubility of SEQ ID NO. 1 in aqueous ethanol solution; format: physicochemical
Excerpt: The above general procedures were followed replacing isopropyl alcohol (IPA) with ethanol.
(§1) 1 that is able to be dissolved in the aqueous ethanol solution, depending on the v/v % ethanol:water. The very sharp increase in solubility between 50-70 ethanol was very unexpected and the discovery of this unexpected result allowed for the successful isolation of SEQ ID NO. 1 by precipitation which was necessary for a viable large manufacturing scale-up required for commercial production.

[3] = test system: small bowel motility, fluid secretion, visceral pain; conditions: oral, mice and rats; cited from earlier work
[4] = Solubility of SEQ ID NO. 1 in aqueous isopropanol solution; format: physicochemical
Excerpt: as §1, with “in” for “in the”, “isopropanol” for “ethanol”, “isopropanol:water.” for “ethanol:water.”, “40-60% isopropanol” for “50-70 ethanol”

T1 sequence (P25092 24-1073): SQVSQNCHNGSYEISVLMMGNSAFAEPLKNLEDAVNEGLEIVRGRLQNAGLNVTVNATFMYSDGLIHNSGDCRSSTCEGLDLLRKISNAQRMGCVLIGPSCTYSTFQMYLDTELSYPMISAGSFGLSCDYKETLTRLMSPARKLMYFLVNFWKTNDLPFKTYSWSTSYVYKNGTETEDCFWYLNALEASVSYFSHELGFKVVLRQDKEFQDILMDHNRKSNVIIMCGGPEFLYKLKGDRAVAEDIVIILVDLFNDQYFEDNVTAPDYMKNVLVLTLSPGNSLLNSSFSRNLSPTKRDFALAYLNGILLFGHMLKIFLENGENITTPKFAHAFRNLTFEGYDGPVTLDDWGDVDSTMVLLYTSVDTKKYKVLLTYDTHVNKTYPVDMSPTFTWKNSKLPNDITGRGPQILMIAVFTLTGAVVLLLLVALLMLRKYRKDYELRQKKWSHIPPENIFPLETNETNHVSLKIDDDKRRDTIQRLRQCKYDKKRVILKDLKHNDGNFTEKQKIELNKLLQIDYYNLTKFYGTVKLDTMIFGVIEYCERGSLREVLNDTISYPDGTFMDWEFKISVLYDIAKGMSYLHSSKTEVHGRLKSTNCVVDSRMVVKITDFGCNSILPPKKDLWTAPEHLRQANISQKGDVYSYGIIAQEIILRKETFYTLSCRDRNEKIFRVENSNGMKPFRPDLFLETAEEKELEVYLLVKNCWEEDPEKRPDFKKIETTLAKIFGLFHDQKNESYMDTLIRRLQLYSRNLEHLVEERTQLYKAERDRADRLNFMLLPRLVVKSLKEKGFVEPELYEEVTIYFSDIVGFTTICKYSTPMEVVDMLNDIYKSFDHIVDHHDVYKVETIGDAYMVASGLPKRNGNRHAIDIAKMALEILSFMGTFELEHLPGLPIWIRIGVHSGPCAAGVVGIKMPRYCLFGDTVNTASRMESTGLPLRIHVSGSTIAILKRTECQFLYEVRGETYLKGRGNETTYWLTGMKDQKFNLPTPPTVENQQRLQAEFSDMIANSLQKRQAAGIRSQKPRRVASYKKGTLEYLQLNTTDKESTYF

C[C@@H]1NC(=O)[C@@H]2CCCN2C(=O)[C@H](CC(N)=O)NC(=O)[C@@H]2CSSC[C@H](N)C(=O)N[C@H]3CSSC[C@H](NC1=O)C(=O)N[C@@H]([C@@H](C)O)C(=O)NCC(=O)N[C@H](C(=O)N[C@@H](Cc1ccc(O)cc1)C(=O)O)CSSC[C@H](NC(=O)[C@H](Cc1ccc(O)cc1)NC(=O)[C@H](CCC(=O)O)NC3=O)C(=O)N2 [SEQ ID No. 1, Cys-Cys-Glu-Tyr-Cys-Cys-Asn-Pro-Ala-Cys-Thr-Gly-Cys-Tyr] (H-CCEYCCNPACTGCY-OH; disulfide 1-6, 2-10, 5-13)
cGMP in human intestinal cells [1]: increased cGMP
amount of SEQ ID NO. 1 able to be dissolved ([2]; EtOH 0 v/v % in water): 0.50 mg/mL
amount of SEQ ID NO. 1 able to be dissolved ([2]; EtOH 5 v/v % in water): 0.25 mg/mL
amount of SEQ ID NO. 1 able to be dissolved ([2]; EtOH 10 v/v % in water): 0.75 mg/mL
amount of SEQ ID NO. 1 able to be dissolved ([2]; EtOH 15 v/v % in water): 1.00 mg/mL
amount of SEQ ID NO. 1 able to be dissolved ([2]; EtOH 20 v/v % in water): 0.75 mg/mL
amount of SEQ ID NO. 1 able to be dissolved ([2]; EtOH 25 v/v % in water): 3.00 mg/mL
amount of SEQ ID NO. 1 able to be dissolved ([2]; EtOH 30 v/v % in water): 3.00 mg/mL
amount of SEQ ID NO. 1 able to be dissolved ([2]; EtOH 35 v/v % in water): 2.75 mg/mL
amount of SEQ ID NO. 1 able to be dissolved ([2]; EtOH 40 v/v % in water): 2.25 mg/mL
amount of SEQ ID NO. 1 able to be dissolved ([2]; EtOH 45 v/v % in water): 3.50 mg/mL
amount of SEQ ID NO. 1 able to be dissolved ([2]; EtOH 50 v/v % in water): 9.25 mg/mL
amount of SEQ ID NO. 1 able to be dissolved ([2]; EtOH 55 v/v % in water): 179.25 mg/mL
amount of SEQ ID NO. 1 able to be dissolved ([2]; EtOH 60 v/v % in water): 347.50 mg/mL
amount of SEQ ID NO. 1 able to be dissolved ([2]; EtOH 65 v/v % in water): 430.00 mg/mL
amount of SEQ ID NO. 1 able to be dissolved ([2]; EtOH 70 v/v % in water): 441.50 mg/mL
amount of SEQ ID NO. 1 able to be dissolved ([2]; EtOH 75 v/v % in water): 304.00 mg/mL
amount of SEQ ID NO. 1 able to be dissolved ([2]; EtOH 80 v/v % in water): 45.25 mg/mL
amount of SEQ ID NO. 1 able to be dissolved ([2]; EtOH 85 v/v % in water): 10.25 mg/mL
amount of SEQ ID NO. 1 able to be dissolved ([2]; EtOH 90 v/v % in water): 10.00 mg/mL
amount of SEQ ID NO. 1 able to be dissolved ([2]; EtOH 95 v/v % in water): 3.75 mg/mL
amount of SEQ ID NO. 1 able to be dissolved ([2]; EtOH 100 v/v %): 0.50 mg/mL
effects on small bowel motility, fluid secretion and visceral pain [3]: promising effects on increasing small bowel motility, fluid secretion and decreasing visceral pain
amount of SEQ ID NO. 1 able to be dissolved ([4]; IPA 0 v/v % in water): 1.3 mg/mL
amount of SEQ ID NO. 1 able to be dissolved ([4]; IPA 5 v/v % in water): 1.8 mg/mL
amount of SEQ ID NO. 1 able to be dissolved ([4]; IPA 10 v/v % in water): 2.3 mg/mL
amount of SEQ ID NO. 1 able to be dissolved ([4]; IPA 15 v/v % in water): 3.3 mg/mL
amount of SEQ ID NO. 1 able to be dissolved ([4]; IPA 20 v/v % in water): 4.3 mg/mL
amount of SEQ ID NO. 1 able to be dissolved ([4]; IPA 25 v/v % in water): 4.8 mg/mL
amount of SEQ ID NO. 1 able to be dissolved ([4]; IPA 30 v/v % in water): 6.0 mg/mL
amount of SEQ ID NO. 1 able to be dissolved ([4]; IPA 35 v/v % in water): 7.0 mg/mL
amount of SEQ ID NO. 1 able to be dissolved ([4]; IPA 40 v/v % in water): 13.8 mg/mL
amount of SEQ ID NO. 1 able to be dissolved ([4]; IPA 45 v/v % in water): 47.8 mg/mL
amount of SEQ ID NO. 1 able to be dissolved ([4]; IPA 50 v/v % in water): 120.3 mg/mL
amount of SEQ ID NO. 1 able to be dissolved ([4]; IPA 55 v/v % in water): 162.5 mg/mL
amount of SEQ ID NO. 1 able to be dissolved ([4]; IPA 60 v/v % in water): 138.5 mg/mL
amount of SEQ ID NO. 1 able to be dissolved ([4]; IPA 65 v/v % in water): 106.5 mg/mL
amount of SEQ ID NO. 1 able to be dissolved ([4]; IPA 70 v/v % in water): 65.7 mg/mL
amount of SEQ ID NO. 1 able to be dissolved ([4]; IPA 75 v/v % in water): 26.5 mg/mL
amount of SEQ ID NO. 1 able to be dissolved ([4]; IPA 80 v/v % in water): 19.0 mg/mL
amount of SEQ ID NO. 1 able to be dissolved ([4]; IPA 85 v/v % in water): 12.5 mg/mL
amount of SEQ ID NO. 1 able to be dissolved ([4]; IPA 90 v/v % in water): 9.0 mg/mL
amount of SEQ ID NO. 1 able to be dissolved ([4]; IPA 95 v/v % in water): 4.5 mg/mL
amount of SEQ ID NO. 1 able to be dissolved ([4]; IPA 100 v/v %): 0.3 mg/mL
